The values that follow come from patent US20250268903A1, “RXFP1 AGONISTS” (BRISTOL-MYERS SQUIBB COMPANY, priority 2021, published 2025).

In the test the target is T1, human RXFP1 (Homo sapiens, UniProt Q9HBX9).
T1 construct: expressed in transfected cells
T1 sequence (Q9HBX9 1-757): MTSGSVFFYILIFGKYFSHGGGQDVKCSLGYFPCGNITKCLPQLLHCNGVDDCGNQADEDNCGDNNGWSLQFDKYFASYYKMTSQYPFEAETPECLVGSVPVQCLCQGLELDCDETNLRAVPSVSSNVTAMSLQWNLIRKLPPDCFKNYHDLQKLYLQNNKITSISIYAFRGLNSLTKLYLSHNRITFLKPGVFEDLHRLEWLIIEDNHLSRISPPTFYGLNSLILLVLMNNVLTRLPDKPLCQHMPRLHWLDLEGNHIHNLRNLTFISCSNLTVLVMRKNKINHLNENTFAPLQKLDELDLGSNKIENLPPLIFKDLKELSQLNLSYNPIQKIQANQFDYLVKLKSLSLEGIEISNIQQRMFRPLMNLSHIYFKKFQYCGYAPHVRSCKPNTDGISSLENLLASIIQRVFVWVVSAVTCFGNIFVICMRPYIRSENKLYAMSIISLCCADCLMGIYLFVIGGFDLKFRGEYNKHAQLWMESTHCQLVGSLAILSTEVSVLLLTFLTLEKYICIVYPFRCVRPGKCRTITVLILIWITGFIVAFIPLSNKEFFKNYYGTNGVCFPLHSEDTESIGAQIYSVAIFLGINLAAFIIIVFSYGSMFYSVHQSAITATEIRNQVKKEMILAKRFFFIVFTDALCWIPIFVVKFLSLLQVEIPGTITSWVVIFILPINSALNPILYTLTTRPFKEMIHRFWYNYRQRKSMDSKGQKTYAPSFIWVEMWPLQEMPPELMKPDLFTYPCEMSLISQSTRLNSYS
Nature of the test: hRXFP1 HEK293 cAMP assay (HTRF). The following applies: HEK293 cells stably expressing human RXFP1, 30 min at room temperature. In kind it is cell-based. How it is done: RXFP1 Cyclic Adenosine Monophosphate (cAMP) Assays. […] Cells were dissociated and suspended in assay buffer. The assay buffer was HBSS buffer (with calcium and magnesium) containing 20 mM HEPES, 0.05% BSA, and 0.5 mM IBMX. Cells (3000 cells per well, except 1500 cell per well for HEK293 cells stably expressing human RXFP1) were added to 384-well Proxiplates (Perkin-Elmer). Cells were immediately treated with test compounds in DMSO (2% final) at final concentrations in the range of 0.010 nM to 50 μM. Cells were incubated for 30 min at room temperature. The level of intracellular cAMP was determined using the HTRF HiRange cAMP assay reagent kit (Cisbio) according to manufacturer's instructions. Solutions of cryptate conjugated anti-cAMP and d2 fluorophore-labelled cAMP were made in a supplied lysis buffer separately. Upon completion of the reaction, the cells were lysed with equal volume of the d2-cAMP solution and anti-cAMP solution. […] The potency and activity of a compound to […] cAMP production was then determined by fitting to a 4-parametric logistic equation from a plot of cAMP level versus compound concentrations.
As a reminder, the EC50 is the concentration giving half of the maximal effect. Consider `COc1ccc(C#CCCCCO)cc1C(=O)N[C@@H]1C2CCC(/C2=C/C(F)(F)F)[C@@H]1C(=O)Nc1ccc(F)c(C(F)(F)F)c1` (stereo partly drawn) [Example 78, (2S,4R,7Z)-N-[4-fluoro-3-(trifluoromethyl)phe-nyl]-3-[5-(6-hydroxyhex-1-yn-1-yl)-2-methoxybenzamido]-7-(2,2,2-trifluoroethylidene)bi-cyclo[2.2.1]heptane-2-carboxamide], for which the midpoint of the response, the EC50, lay at 229 nM.

As for `COc1ccc(C2CC3CC(O)CC32)cc1C(=O)N[C@H]1[C@@H](C(=O)Nc2ccc(F)c(C(F)(F)F)c2)[C@H]2CC[C@@H]1/C2=C\C1CC1` (single isomer, unassigned) [Example 340], the midpoint of the response, the EC50, lay at 78.5 nM.

The compound “2-(3-{[(2R,3S,7Z)- 3-{[4-fluoro-3- (trifluoromethyl)phe- nyl]carbamoyl}-7- (2,2,2- trifluoroethylidene)bi- cyclo[2.2.1]heptan- 2-yl]carbamoyl}-4- methoxyphenyl)ethyl N-phenylcarbamate [Example 56]” showed an EC50 of 447 nM.

As for `COc1c(F)cc(C(=O)NCC2(S(C)(=O)=O)CC2)cc1C(=O)N[C@H]1[C@@H](C(=O)Nc2ccc(F)c(C(F)(F)F)c2)[C@H]2CC[C@@H]1/C2=C\C1CC1` [Example 366, N3-[(1R,2R,3S,4R,7Z)-7-(cyclopropyl-methylidene)-3-{[4-fluoro 3-(trifluoromethyl)phenyl]carbamoyl}bicyclo[2.2.1]heptan-2-yl]-5-fluoro-N1-[(1-methanesulfonyl-cyclopropyl)methyl]-4-methoxybenzene-1,3-dicarboxamide], the EC50 amounted to 3.1 nM.

`COc1ccc(CCCOc2nc3ccccc3n2C)cc1C(=O)N[C@@H]1C2CCC(/C2=C/C(F)(F)F)[C@@H]1C(=O)Nc1ccc(F)c(C(F)(F)F)c1` (stereo partly drawn) [Example 105, (2S,3R,7Z)-N-[4-fluoro-3-(trifluoromethyl)phe-nyl]-3-(2-methoxy-5-{3-[(1-methyl-1H-1,3-benzodiazol-2-yl)oxy]propyl}benza-mido)-7-(2,2,2-trifluoroethylidene)bi-cyclo[2.2.1]heptane-2-carboxamide]: the EC50 is 1640 nM.

`COc1ccc(/C=C/C(=O)N2CC3CCC(C2)O3)cc1C(=O)N[C@H]1[C@@H](C(=O)Nc2ccc(F)c(C(F)(F)F)c2)[C@H]2CC[C@@H]1/C2=C\C(F)(F)F` [Example 311, (1R,2S,3R,4R,7Z)-N-[4-fluoro-3-(trifluoromethyl)phenyl]-3-{2-methoxy-5-[(1E)-3-{8-oxa-3-azabicyclo[3.2.1]octan-3-yl}-3-oxoprop-1-en-1-yl]benzamido}-7-(2,2,2-trifluoroethylidene) bicyclo[2.2.1]heptane-2-carboxamide] returned a half-maximal effective concentration (EC50) of 90.9 nM. This EC50 is about 18-fold lower than that of the compound before.

As for `CCN1CCN(S(=O)(=O)c2ccc(OC)c(C(=O)N[C@H]3[C@@H](C(=O)Nc4ccc(F)c(C(F)(F)F)c4)[C@H]4CC[C@@H]3/C4=C\C(F)(F)F)c2)CC1` [Example 209], the midpoint of the response, the EC50, lay at 603 nM.

As for `COc1ccc(C23CCC2CC(CO)C3)cc1C(=O)N[C@H]1[C@@H](C(=O)Nc2ccc(F)c(C(F)(F)F)c2)[C@H]2CC[C@@H]1/C2=C\C1CC1` (stereo partly drawn) [Example 353, (1R,2S,3R,4R,7Z)-7-(cyclopropyl-methylidene)-N-[4-fluoro-3-(trifluoromethyl)phenyl]-3-{5-[3-(hydroxymethyl)bicyclo[3.2.0]heptan-1-yl]-2-methoxybenzamido} bicyclo[2.2.1]heptane-2-carboxamide], the EC50 was found to be 181 nM. Compared with the last compound, the EC50 is about 3.3-fold lower.

`COc1ccc(S(=O)(=O)N2CCNCC2)cc1C(=O)NC1C2CCC(/C2=C/C(F)(F)F)[C@@H]1C(=O)Nc1ccc(F)c(C(F)(F)F)c1` (stereo partly drawn) [Example 203, (2S,3R,7Z)-N-[4-fluoro-3-(trifluoromethyl)phe-nyl]-3-[2-methoxy-5-(piperazine-1-sulfonyl)benzamido]-7-(2,2,2-trifluoroethylidene)bi-cyclo[2.2.1]heptane-2-carboxamide]: the EC50 stood at 858 nM.

The compound `COc1ccc(CN2C(=O)NC3(CCOC3)C2=O)cc1C(=O)N[C@H]1[C@@H](C(=O)Nc2ccc(F)c(C(F)(F)F)c2)[C@H]2CC[C@@H]1/C2=C\C1CC1` (stereo partly drawn) [Example 295, (1R,2S,3R,4R,7Z)-7-(cyclopropyl-methylidene)-3-[5-({2,4-dioxo-7-oxa-1,3-diazaspiro[4.4]nonan-3-yl}methyl)-2-methoxybenzamido]-N-[4-fluoro-3-(trifluoromethyl)phenyl]bicyclo [2.2.1]heptane-2-carboxamide] showed an EC50 of 70.4 nM. Against the preceding compound, the EC50 is about 12-fold lower.

With `COc1ccc(/C=C/C(=O)N[C@H]2C[C@H](O)C2)cc1C(=O)N[C@@H]1C2CCC(/C2=C/C2CC2)[C@@H]1C(=O)Nc1ccc(F)c(C(F)(F)F)c1` (stereo partly drawn) [Example 127, (2S,3R,7Z)-7-(cyclopropylmethyli-dene)-N-[4-fluoro-3-(trifluoromethyl)phe-nyl]-3-{2-methoxy-5-[(1E)-2-{[(1r,3r)-3-hydroxycyclobutyl]carbamoyl}eth-1-en-1-yl]benzamido}bicyclo [2.2.1]heptane-2-carboxamide], the half-maximal effective concentration (EC50) was 74 nM.

`COc1ccc(COC2CCC(OCc3ccccc3)CC2)cc1C(=O)N[C@@H]1C2CCC(/C2=C/C2CC2)[C@@H]1C(=O)Nc1ccc(F)c(C(F)(F)F)c1` (single isomer, unassigned) [Example 23] gave an EC50 of 993 nM.

For `COc1ccc(C23CCC(C(C)(C)O)(CC2)CC3)cc1C(=O)N[C@H]1[C@@H](C(=O)Nc2ccc(F)c(C(F)(F)F)c2)[C@H]2CC[C@@H]1/C2=C\C1CC1` [Example 275, (1R,2S,3R,4R,7Z)-7-(cyclopropylmethyl-idene)-N-[4-fluoro-3-(trifluoromethyl)phenyl]-3-{5-[4-(2-hydroxypropan-2-yl)bicyclo[2.2.2]octan-1-yl]-2-methoxybenzamido} bicyclo[2.2.1]heptane-2-carboxamide], the concentration giving a half-maximal response (EC50) was 41.8 nM.

Consider `COc1ccc(CC[C@H](C)O)cc1C(=O)N[C@@H]1C2CCC(/C2=C/C(F)(F)F)[C@@H]1C(=O)Nc1ccc(F)c(C(F)(F)F)c1` (stereo partly drawn) [Example 92, (2S,3R,7Z)-N-[4-fluoro-3-(trifluoromethyl)phe-nyl]-3-{5-[(3S)-3-hydroxybutyl]-2-methoxybenzamido}-7-(2,2,2-trifluoroethylidene)bi-cyclo[2.2.1]heptane-2-carboxamide], for which the response was half-maximal at 172 nM (EC50). This EC50 lies about 4.1-fold higher than the previous one.

“(2S,3R,7Z)-7- butylidene-N-[4- fluoro-3- (trifluoromethyl)phe- nyl]-3-[5-(3- hydroxy-3- methylbutyl)-2- methoxybenzamido] bicyclo[2.2.1]heptane- 2-carboxamide [Example 88]” returned an EC50 of 28 nM.

`COc1ccc(C2CCCC(NC(=O)C3CCOCC3)C2)cc1C(=O)N[C@@H]1C2CCC(/C2=C/C(F)(F)F)[C@@H]1C(=O)Nc1ccc(F)c(C(F)(F)F)c1` (single isomer, unassigned) [Example 49] gave a half-maximal effective concentration (EC50) of 833 nM. This EC50 lies about 30-fold higher than the previous one.

With `COc1ccc(CCCO)cc1C(=O)NC1C2CCC(/C2=C/C2CC(F)(F)C2)[C@@H]1C(=O)Nc1ccc(F)c(C(F)(F)F)c1` (stereo partly drawn) [Example 159, (2S,3R,7Z)-7-[(3,3-difluorocyclobutyl)methylidene]-N-[4-fluoro-3-(trifluoromethyl)phe-yl]-3-[5-(3-hydroxypropyl)-2-methoxybenzamideo] bicyclo[2.2.1]heptane-2-carboxamide], the EC50 worked out at 43 nM.

Regarding `COc1ccc(COC2CCOC2)cc1C(=O)N[C@@H]1C2CCC(/C2=C/C(F)(F)F)[C@@H]1C(=O)Nc1ccc(F)c(C(F)(F)F)c1` (stereo partly drawn) [Example 27, (2S,3R,7Z)-N-[4-fluoro-3-(trifluoromethyl)phe-nyl]-3-{2-methoxy-5-[(oxolan-3-yloxy)methyl]benza-mido}-7-(2,2,2-trifluoroethylidene)bi-cyclo[2.2.1]heptane-2-carboxamide], the midpoint of the response, the EC50, lay at 4680 nM. This EC50 is about 110-fold higher than that of the compound before.

`COc1ccc(CCCCO)cc1C(=O)N[C@@H]1C2CCC(/C2=C/C(F)(F)F)[C@@H]1C(=O)Nc1ccc(F)c(C(F)(F)F)c1` (stereo partly drawn) [Example 98, (2S,3R,7Z)-N-[4-fluoro-3-(trifluoromethyl)phe-nyl]-3-[5-(4-hydroxybutyl)-2-methoxybenzamido]-7-(2,2,2-trifluoroethylidene)bi-cyclo[2.2.1]heptane-2-carboxamide]: a half-maximal response (EC50) required 111 nM.

As for `COc1ccc(C2CC3CC(CO)CC32)cc1C(=O)N[C@H]1[C@@H](C(=O)Nc2ccc(F)c(C(F)(F)F)c2)[C@H]2CC[C@@H]1/C2=C\C1CC1` (single isomer, unassigned) [Example 349], the midpoint of the response, the EC50, lay at 60.9 nM.
